How the values were obtained:
L1210 [1] = test: Inhibition of RNA synthesis in mouse L1210 cells assessed as inhibition of [14C]-uridine incorporation measured per 10^6 cells […] pretreated for 1 hr followed by radiotracer addition measured after 1 hr by scintillation spectrometric analysis relative to control; assay type: functional
L1210 [2] = test: Inhibition of DNA synthesis in mouse L1210 cells assessed as inhibition of [3H]-thymidine incorporation measured per 10^6 cells […] pretreated for 1 hr followed by radiotracer addition measured after 1 hr by scintillation spectrometric analysis relative to control; assay type: functional
L1210 [3] = test: Ratio of inhibition of [3H]-thymidine incorporation into DNA in mouse L1210 cells to cellular uptake in mouse L1210 cells
L1210 [4] = test: Inhibition of DNA synthesis in mouse L1210 cells assessed as inhibition of [3H]-thymidine incorporation measured per 10^6 cells at 3 uM pretreated for 1 hr followed by radiotracer addition measured after 1 hr by scintillation spectrometric analysis relative to control; assay type: functional
L1210 [5] = test: Cellular uptake in mouse L1210 cells assessed per 10^6 cells at 3 uM up to 120 mins; assay type: ADME, cell-based; details: l1210, 2 h
L1210 [6] = test: Inhibition of RNA synthesis in mouse L1210 cells assessed as inhibition of [14C]-uridine incorporation measured per 10^6 cells at 5 uM pretreated for 1 hr followed by radiotracer addition measured after 1 hr by scintillation spectrometric analysis relative to control; assay type: functional
L1210 [7] = test: Inhibition of DNA synthesis in mouse L1210 cells assessed as inhibition of [3H]-thymidine incorporation measured per 10^6 cells at 5 uM pretreated for 1 hr followed by radiotracer addition measured after 1 hr by scintillation spectrometric analysis relative to control; assay type: functional
L1210 [8] = test: Ratio of inhibition of [14C]-uridine incorporation into RNA in mouse L1210 cells to cellular uptake in mouse L1210 cells
L1210 [9] = test: Inhibition of RNA synthesis in mouse L1210 cells assessed as inhibition of [14C]-uridine incorporation measured per 10^6 cells at 3 uM pretreated for 1 hr followed by radiotracer addition measured after 1 hr by scintillation spectrometric analysis relative to control; assay type: functional

SMILES | inhibition at 1 µM (L1210 [1]) | inhibition at 1 µM (L1210 [2]) | Ratio (L1210 [3]) | inhibition at 3 µM (L1210 [4]) | Drug uptake (L1210 [5]) | inhibition at 5 µM (L1210 [6]) | inhibition at 5 µM (L1210 [7]) | Ratio (L1210 [8]) | inhibition at 3 µM (L1210 [9])
COc1cccc2c1C(=O)c1c(O)c3c(c(O)c1C2=O)C[C@@](O)(C(C)O)C[C@@H]3O[C@H]1C[C@H](N)[C@H](O)[C@H](C)O1 (stereo not given in full) | 11.2% | 12.1% | 94 | 30.8% | 0.33 nmol | 46.4% | 36.8% | 88 | 28.9%
COc1cccc2c1C(=O)c1c(O)c3c(c(O)c1C2=O)C[C@@](O)(C(=O)CO)C[C@@H]3O[C@H]1C[C@H](N)[C@H](O)[C@H](C)O1 [DOXORUBICIN] | 22.5% | 28.9% | 152 | 34.5% | 0.19 nmol | 56.9% | 52.2% | 121 | 50.8%
COc1cccc2c1C(=O)C1=C(C2=O)C(O)C2=C(C1O)[C@@H](C[C@@H]1C[C@H](N)[C@@H](O)[C@H](C)O1)C[C@@](O)(/C(C)=N/NC(=O)c1ccccc1)C2 (stereo not given in full) [RUBIDAZONE] | 11.6% | 12.7% | 65 | 27.2% | 0.2 nmol | 58.2% | 41% | 60 | 36.8%
COc1cccc2c1C(=O)c1c(O)c3c(c(O)c1C2=O)C[C@@](O)(C(C)=O)C[C@@H]3O[C@H]1C[C@H](N)[C@H](O)[C@H](C)O1 [DAUNORUBICIN] | 47.6% | 37% | 119 | 68.8% | 0.31 nmol | 74.8% | 83% | 155 | 69.8%
COc1cccc2c1C(=O)c1c(O)c3c(c(O)c1C2=O)C[C@@](O)([C@@H](O)CO)C[C@@H]3O[C@H]1C[C@H](N)[C@H](O)[C@H](C)O1 | 10.1% | 23.7% | 200 | 25% | 0.16 nmol | 22.4% | 32% | 137 | 17.9%
